From ChEMBL document CHEMBL1149924, “Structure activity studies on pseudo-symmetrical HIV-1 protease inhibitors” (Bioorg Med Chem Lett, 1993)

What was measured:
[1] = target: T1, Human immunodeficiency virus type 1 protease (Human immunodeficiency virus 1, UniProt Q72874); assay: Inhibitory activity against HIV-1 protease
MT2 = assay: Compound was evaluated for its inhibitory activity against HIV-1-IIIB infected MT2 cells (human T lymphoid cells); assay type: functional, cell-based
[2] = target: T1, Human immunodeficiency virus type 1 protease; assay: Compound was evaluated for its inhibitory activity in recombinant HIV-l protease
[3] = target: T1, Human immunodeficiency virus type 1 protease; assay: Compound was evaluated for its binding affinity against HIV-1 protease using [125I]-SPA (scintillation proximity assay)
[4] = target: T1, Human immunodeficiency virus type 1 protease; assay: Compound was evaluated for its inhibitory activity against recombinant HIV-1 protease using [125I]-SPA (scintillation proximity assay)

| Compound | IC50 [1] [nM] | IC50 (MT2) [nM] | also measured |
| --- | --- | --- | --- |
| CCCC[C@H](CC1(C[C@@H](CCCC)C(=O)N[C@@H](CC(C)C)C(=O)N[C@@H](Cc2ccccc2)C(=O)OC)CO1)C(=O)N[C@@H](CC(C)C)C(=O)N[C@@H](Cc1ccccc1)C(=O)OC | 400 | – | – |
| COC(=O)[C@@H](NC(=O)[C@@H](NC(=O)[C@H](Cc1ccccc1)CC(O)C[C@@H](Cc1ccccc1)C(=O)N[C@H](C(=O)N[C@H](C(=O)OC)C(C)C)C(C)C)C(C)C)C(C)C | 5 | 1600 | – |
| CC[C@H](C)[C@H](NC(=O)[C@H](Cc1ccccc1)CC(O)C[C@@H](Cc1ccccc1)C(=O)N[C@H](C(=O)NCc1ccccn1)[C@@H](C)CC)C(=O)NCc1ccccn1 | – | 500 | IC50 [2]: 450 nM |
| CC(C)[C@H](NC(=O)[C@H](Cc1ccccc1)CC(O)C[C@@H](Cc1ccccc1)C(=O)N[C@H](C(=O)NCc1nc2ccccc2[nH]1)C(C)C)C(=O)NCc1nc2ccccc2[nH]1 | 10 | 2100 | – |
| CC(C)CNC(=O)[C@H](Cc1ccccc1)CC(O)C[C@@H](Cc1ccccc1)C(=O)NCC(C)C | > 1000 | – | – |
| COC(=O)[C@H](Cc1ccccc1)NC(=O)[C@H](CC(C)C)NC(=O)[C@H](Cc1ccccc1)CC(O)C[C@@H](Cc1ccccc1)C(=O)N[C@@H](CC(C)C)C(=O)N[C@@H](Cc1ccccc1)C(=O)OC | 30 | 2300 | – |
| COC(=O)[C@H](Cc1ccccc1)NC(=O)[C@@H](NC(=O)[C@H](Cc1ccccc1)CC(O)C[C@@H](Cc1ccccc1)C(=O)N[C@H](C(=O)N[C@@H](Cc1ccccc1)C(=O)OC)C(C)C)C(C)C | 10 | 2400 | – |
| CCCC[C@H](CC(O)C[C@@H](CCCC)C(=O)N[C@@H](CC(C)C)C(=O)N[C@@H](Cc1ccccc1)C(=O)OC)C(=O)N[C@@H](CC(C)C)C(=O)N[C@@H](Cc1ccccc1)C(=O)OC | 90 | – | – |
| CC[C@H](C)[C@H](NC(=O)[C@H](Cc1ccccc1)CC(O)C[C@@H](Cc1ccccc1)C(=O)N[C@H](C(=O)NCC1CCc2ccccc2N1)[C@@H](C)CC)C(=O)NCC1CCc2ccccc2N1 (stereo not given in full) | – | 7500 | IC50 [2]: 1200 nM |
| CCCC[C@H](CC(O)(CO)C[C@@H](CCCC)C(=O)N[C@@H](CC(C)C)C(=O)N[C@@H](Cc1ccccc1)C(=O)OC)C(=O)N[C@@H](CC(C)C)C(=O)N[C@@H](Cc1ccccc1)C(=O)OC | 2000 | – | – |
| CCCC[C@H](CC(O)C[C@@H](CCCC)C(=O)N[C@H](C(=O)N[C@H](C(=O)OC)C(C)C)C(C)C)C(=O)N[C@H](C(=O)N[C@H](C(=O)OC)C(C)C)C(C)C | 5 | – | – |
| COC(=O)[C@@H](NC(=O)[C@@H](NC(=O)[C@@H](CC(=O)C[C@@H](Cc1ccccc1)C(=O)N[C@H](C(=O)N[C@H](C(=O)OC)C(C)C)C(C)C)Cc1ccccc1)C(C)C)C(C)C | > 10000 | – | – |
| CC[C@H](C)[C@H](NC(=O)[C@H](Cc1ccccc1)CC(O)C[C@@H](Cc1ccccc1)C(=O)N[C@H](C(=O)NCc1nc2ccccc2[nH]1)[C@@H](C)CC)C(=O)NCc1nc2ccccc2[nH]1 | 3 | 400 | Ki [3]: 3.5 nM; IC50 [4]: 40000 nM |
| CC[C@H](C)[C@H](NC(=O)[C@H](Cc1ccccc1)CC(O)C[C@@H](Cc1ccccc1)C(=O)N[C@H](C(=O)NCCN1CCOCC1)[C@@H](C)CC)C(=O)NCCN1CCOCC1 | – | > 10000 | IC50 [2]: 850 nM |
| CCCC[C@H](CC(O)C[C@@H](CCCC)C(=O)N[C@@H](C)C(=O)N[C@@H](C)C(=O)OC)C(=O)N[C@@H](C)C(=O)N[C@@H](C)C(=O)OC | 75 | – | – |
